Where no end group is shown, it is not given here.
Legend:
[1] = test system: naive CD4+ T cells; test: In vitro iTreg differentiation (Foxp3+ of CD4+ cells); type: cell-based, mouse; conditions: 10 μM, 72 h, n = 4
Method: C57BL/6 mice were sacrificed, and their spleens and peripheral lymph nodes were removed and gently dissociated into single-cell suspensions. Naive T cells were isolated using the Mouse CD4 Naive T Cell Isolation Kit (BioLegend, Stem Cell, or Thermo Fisher Scientific). Flow cytometry verified that the purity (CD4^+CD25^−CD62L^hi) of the enriched subpopulation was typically higher than 95%. All T cells were cultured using RPMI-1640 medium (Gibco) supplemented with 10% heat-inactivated fetal bovine serum (Gibco), 2 mM L-glutamine (Gibco), 10,000 units/mL of penicillin, 10,000 µg/mL of streptomycin, and 25 µg/mL of Gibco Amphotericin B (Thermo Fisher Scientific), 10 mM HEPES (Gibco), 1 mM Sodium pyruvate, MEM Non-Essential Amino Acids (Life Technologies) and 55 μM β-mercaptoethanol (Gibco). 0.1 million naive CD4^+ T cells were activated with plate-coated anti-CD3 (2.5 μg/ml; BD Biosciences) and soluble anti-CD28 (2 μg/ml; BD Biosciences) antibodies. The Th1 cell differentiation condition included recombinant murine (rm)IL-12 (10 ng/ml, PeproTech) and anti-IL-4 (10 μg/ml, BioLegend). The Th17 cell differentiation condition included rmIL-6 (10 ng/ml, PeproTech), rmTGF-β1 (5 ng/ml, PeproTech), rmIL-23 (10 ng/ml, PeproTech), anti-IL-4 (5 μg/ml, BioLegend) and anti-IFN-γ (10 μg/ml, eBioscience). The inducible T regulatory cell (iTreg) differentiation condition included rmTGF-β (5 ng/ml, PeproTech). 0.1 million naive CD8^+ T cells were activated with plate-coated anti-CD3 (10 μg/ml; BD Biosciences) and plate-coated anti-CD28 (10 μg/ml; BD Biosciences) antibodies. The Tc17 cell differentiation condition included rmIL-6 (10 ng/ml, PeproTech), rmTGF-β1 (2 ng/ml, PeproTech), rmIL-23 (25 ng/ml, PeproTech), rmIL1-β (5 ng/ml, PeproTech), and anti-IFN-γ (10 μg/ml, eBioscience). The Tc1 cell differentiation condition included rmIL-2 (5 ng/ml, PeproTech) and rm IL-12 (1 ng/ml, PeproTech). Different concentrations of Dleu2-17aa and scrPEP (Genscript) were added to the T cell culture from the beginning unless specified. Cells were cultured in U-bottom 96-well plates for 72 h and detected by flow cytometry.
For in vitro mouse T cell differentiation, after 72 h of induction, cells were activated for 4–6 h at 37 °C with the Cell Stimulation Cocktail (Thermo Fisher Scientific) if intracellular cytokine staining is needed, surface markers were stained in FACS buffer (PBS containing 2% FBS) for 30 min at 4 °C protected from light. Cells were then fixed and permeabilized with the Foxp3 Staining Buffer Set (eBioscience) or BD Cytofix/Cytoperm (BD Biosciences) and were stained with fluorescent antibodies. After washing, stained cells were assayed with an LSRFortessa (BD) flow cytometer, and data were analyzed with FlowJo software. Single-cell suspensions from EAE mouse spleen or CNS (day 16 post-immunization) were derived through mechanical separation and passage through a 70-μm filter (Fisherbrand) and analyzed using similar steps. For flow cytometry, antibodies against CD4 (clone GK1.5, 1:200), CD62L (clone MEL-14, 1:200), CD44 (clone IM7, 1:200), CD25 (clone PC61.5, 1:200), IL-17A (clone eBio17B7, 1:200), IFN-γ (clone XMG1.2, 1:200), FoxP3 (clone FJK-16s, 1:200), CD184 (clone 2B11/CXCR4, 1:100), CD152 (clone BNI3 1:100) and CD357 (clone DTA-1 1:100) were from eBioscience, CD3 (clone 145-2C11, 1:200) was from Biolegend and TGFBI (1:100) were from proteintech. For Dleu2-17aa expression detection, C57BL/6 mice were sacrificed, and their spleens were removed and gently dissociated into single-cell suspensions. An Fc blocker was used to reduce potential nonspecific antibody staining caused by IgG. Surface staining was performed using monoclonal antibodies against CD45 (clone 30-F11), CD3 (clone 145-2C11), CD19 (clone SJ25C1), CD11c (clone N418), MHCII (clone M5/114.15.2), F4/80 (clone BM8) all at a dilution of 1:200 (from Biolengend) followed by fixation and permeabilization of the nuclear membrane BD Cytofix/Cytoperm (BD Biosciences). […]

[2] = test system: EL4 cells; test: Uptake of FAM-labeled peptide, flow cytometry; type: cell-based, mouse; conditions: 6-FAM conjugate, 10 μM, n = 3
Method: (§1) Figure EV1 Dleu2-17aa enters CD4^+ T cells. (A) Representative histogram of Dleu2-17aa (10 μM) uptake in Jurkat and EL4 cell lines (n = 3). (B) Flow cytometry plots showing FAM-Dleu2-17aa^+ cells gated on CD4^+ T cells after treatment with increasing concentrations of FAM-Dleu2-17aa for 72 h (n = 3). (C) Histograms showing fluorescence intensity of FAM-Dleu2-17aa in CD4^+ T cells after treatment with increasing concentrations of FAM-Dleu2-17aa for 72 h. Gray filled: untreated control (n = 3). (D) Immunofluorescence imaging of FAM-Dleu2-17aa (10 μM) penetration by CD4^+ T cells isolated from WT mouse spleen (n = 3). Scale bars: 20 μm. Data information: n indicates biological replicate.
(§2) The mouse T cell line EL4 (TIB-39) cells and fibroblast cell line NIH/3T3 (CRL-1658) cells were cultured in high-glucose DMEM (Thermo Fisher Scientific) supplemented with 10% fetal bovine serum (FBS; Gibco). The human T cell line Jurkat (TIB-152) cells were cultured in RPMI 1640 medium (Thermo Fisher Scientific) supplemented with 10% FBS. All lines were maintained at 37 °C in a humidified 5% CO2 atmosphere.

[3] = test system: CD4+ T cells; test: Uptake of FAM-labeled peptide, flow cytometry; type: cell-based; conditions: 6-FAM conjugate, 72 h, mouse CD4+ T cells, n = 3
Method: as §1

[4] = test system: Jurkat cells; test: Uptake of FAM-labeled peptide, flow cytometry; type: cell-based, human; conditions: 6-FAM conjugate, 10 μM, n = 3
Method: as §1, §2

[5] = test system: spinal cord of EAE mice; test: Immunostaining of spinal cord sections of treated EAE mice; type: in vivo, mouse
Excerpt: We then analyzed the T cell subsets in the CNS of WT and KO mice after EAE induction to clarify the inflammatory responses. […] To investigate if Dleu2-17aa affects CNS pathology in EAE, we performed immunostaining of spinal cord sections on EAE mice treated with Dleu2-17aa or scrPEP. […] Neuronal staining was also unaffected by Dleu2-17aa, indicating no significant alterations in CNS inflammation.
DAPI Dleu2-17aa CD4 DAPI Dleu2-17aa Iba1 DAPI Dleu2-17aa GFAP DAPI Dleu2-17aa NeuN
Appendix Fig S7: Effects of Dleu2-17aa on CNS pathology.
Representative immunofluorescence images showing Dleu2-17aa and CD4+ T cells (CD4),
microglia (Iba1), astrocyte (GFAP), and neuron (NeuN) staining in spinal cords of WT and KO EAE […]

[6] = test system: CD4+ T cells; test: Subcellular distribution by confocal immunofluorescence microscopy; type: cell-based; conditions: 6-FAM conjugate, 10 μM, 4 h, mouse CD4+ T cells, n = 3
Method: as §1
Mouse CD4^+ T cells and EL4 cells were seeded on glass coverslips and incubated with FAM-Dleu2-17aa (10 µM) for 4 h. Cultured cells were washed three times in PBS and fixed with 4% PFA for 10 min at RT, then incubated in Blocking Buffer (1 × PBS/5% BSA/0.3% Triton X-100) for 1 h. After being washed in PBS and air drying, the coverslips were mounted with DAPI (1:1000; Thermo Fisher Scientific). Images were acquired with Leica TCS SP8 laser scanning confocal microscope.

Sequence	significance of CD4+Foxp3+ (%) vs PBS ([1]; two-tailed Student's t-test)	effect on mouse iTreg cell differentiation ([1]; vs PBS)	penetrating ability [2]	penetration of the peptide ([3]; 0-50 μM)	concentration of maximal penetration [3] [µM]	penetrating ability [4]	colocalization with astrocytes [5]	colocalization with microglia [5]	colocalization with neurons [5]	presence in CD4+ T cells of spinal cord [5]	subcellular distribution [6]
MGRGALRRGRGRARRRGPRRGGTPG [DLEU2-25aa, 25 amino acid micropeptide of human DLEU2 transcripts]	✱✱ (**P<0.01)	exhibited similar features in promoting mouse iTreg cell differentiation									
MLGRRARRRGRGRRRPA [Dleu2-17aa]			capacity to penetrate into different types of T cells	dose-dependent penetration	25 to 50	capacity to penetrate into different types of T cells	limited colocalization	some colocalization	minimal colocalization	expressed in all the CD4^+ T cell	predominantly localized in the nucleus
